Organism: Rattus norvegicus
Test: DrugMatrix - Regimen: Daily Repeat
Assay type: toxicity, organism-based, Sprague-Dawley
Parameters: regimen Daily Repeat, gender Male, age 6-8 weeks
Conditions: in vivo, po, route oral GAVAGE, […]; for TOTAL PROTEIN / ALANINE AMINOTRANSFERASE / ALBUMIN / ALKALINE PHOSPHATASE / ASPARTATE AMINOTRANSFERASE / BLOOD UREA NITROGEN / CARBON DIOXIDE / CHLORIDE / CHOLESTEROL / CREATINE PHOSPHOKINASE / CREATININE / GLUCOSE / LACTATE DEHYDROGENASE / LIPASE / PHOSPHORUS / POTASSIUM / SODIUM / TOTAL BILIRUBIN: tissue Plasma; for ABSOLUTE BASOPHIL / ABSOLUTE EOSINOPHIL / ABSOLUTE LYMPHOCYTE / ABSOLUTE MONOCYTE / ABSOLUTE SEGMENTED NEUTROPHIL / BASOPHIL / EOSINOPHIL / ERYTHROCYTE COUNT / HEMATOCRIT / HEMOGLOBIN / LEUKOCYTE COUNT / LYMPHOCYTE / MEAN CORPUSCULAR HEMOGLOBIN / MEAN CORPUSCULAR HEMOGLOBIN CONCENTRATION / MEAN CORPUSCULAR VOLUME / MONOCYTE / NEUTROPHIL / NUCLEATED RED BLOOD CELLS / PLATELET COUNT: tissue Blood
[1] = 40 mg/kg, 120 h, dose level Low, time 5 day
[2] = 90 mg/kg, 72 h, dose level High, time 3 day
[3] = 90 mg/kg, 120 h, dose level High, time 5 day

CN(C)CCCC1(c2ccc(F)cc2)OCc2cc(C#N)ccc21 (stereo not given) [CITALOPRAM]
TOTAL PROTEIN (40 mg/kg, 72 h, dose level Low, time 3 day): 4.8 G/DL | ABSOLUTE BASOPHIL [1]: 0 CELLS/uL | ABSOLUTE EOSINOPHIL [1]: 0 CELLS/uL | ABSOLUTE LYMPHOCYTE [1]: 8782.67 CELLS/uL | ABSOLUTE MONOCYTE [1]: 193 CELLS/uL | ABSOLUTE SEGMENTED NEUTROPHIL [1]: 424.33 CELLS/uL | BASOPHIL [1]: 0% | EOSINOPHIL [1]: 0% | ERYTHROCYTE COUNT [1]: 5.43 x10E6/uL | HEMATOCRIT [1]: 34.67% | HEMOGLOBIN [1]: 13.13 G/DL | LEUKOCYTE COUNT [1]: 9.4 x10E3/uL | LYMPHOCYTE [1]: 93.67% | MEAN CORPUSCULAR HEMOGLOBIN [1]: 24.23 pg | MEAN CORPUSCULAR HEMOGLOBIN CONCENTRATION [1]: 37.87 G/DL | MEAN CORPUSCULAR VOLUME [1]: 63.9 fL | MONOCYTE [1]: 2% | NEUTROPHIL [1]: 4.33% | NUCLEATED RED BLOOD CELLS [1]: 0 /100WBC | PLATELET COUNT [1]: 1141.33 x10E3/uL | ALANINE AMINOTRANSFERASE [1]: 63 u/L | ALBUMIN [1]: 3.87 G/DL | ALKALINE PHOSPHATASE [1]: 433.67 u/L | ASPARTATE AMINOTRANSFERASE [1]: 95 u/L | BLOOD UREA NITROGEN [1]: 10.67 mg/dL | CARBON DIOXIDE [1]: 31.33 mmol/L | CHLORIDE [1]: 100.67 MEQ/L | CHOLESTEROL [1]: 73 mg/dL | CREATINE PHOSPHOKINASE [1]: 389.67 u/L | CREATININE [1]: 0.14 mg/dL | GLUCOSE [1]: 160 mg/dL | LACTATE DEHYDROGENASE [1]: 173.67 u/L | LIPASE [1]: 10.67 u/L | PHOSPHORUS [1]: 10.57 mg/dL | POTASSIUM [1]: 5.68 MEQ/L | SODIUM [1]: 145.67 MEQ/L | TOTAL BILIRUBIN [1]: 0.1 mg/dL | TOTAL PROTEIN [1]: 5.87 G/DL | ABSOLUTE BASOPHIL [2]: 0 CELLS/uL | ABSOLUTE EOSINOPHIL [2]: 0 CELLS/uL | ABSOLUTE LYMPHOCYTE [2]: 13332.67 CELLS/uL | ABSOLUTE MONOCYTE [2]: 32 CELLS/uL | ABSOLUTE SEGMENTED NEUTROPHIL [2]: 868.67 CELLS/uL | BASOPHIL [2]: 0% | EOSINOPHIL [2]: 0% | ERYTHROCYTE COUNT [2]: 5.39 x10E6/uL | HEMATOCRIT [2]: 34.6% | HEMOGLOBIN [2]: 13.63 G/DL | LEUKOCYTE COUNT [2]: 14.23 x10E3/uL | LYMPHOCYTE [2]: 93.67% | MEAN CORPUSCULAR HEMOGLOBIN [2]: 25.3 pg | MEAN CORPUSCULAR HEMOGLOBIN CONCENTRATION [2]: 39.4 G/DL | MEAN CORPUSCULAR VOLUME [2]: 64.2 fL | MONOCYTE [2]: 0.33% | NEUTROPHIL [2]: 6% | NUCLEATED RED BLOOD CELLS [2]: 0 /100WBC | PLATELET COUNT [2]: 1096.33 x10E3/uL | ALANINE AMINOTRANSFERASE [2]: 59.67 u/L | ALBUMIN [2]: 3.87 G/DL | ALKALINE PHOSPHATASE [2]: 376.33 u/L | ASPARTATE AMINOTRANSFERASE [2]: 89 u/L | BLOOD UREA NITROGEN [2]: 9.33 mg/dL | CARBON DIOXIDE [2]: 26.67 mmol/L | CHLORIDE [2]: 102.5 MEQ/L | CHOLESTEROL [2]: 65.67 mg/dL | CREATINE PHOSPHOKINASE [2]: 142.33 u/L | CREATININE [2]: 0.11 mg/dL | GLUCOSE [2]: 156 mg/dL | LACTATE DEHYDROGENASE [2]: 214.33 u/L | PHOSPHORUS [2]: 10.6 mg/dL | POTASSIUM [2]: 6.1 MEQ/L | SODIUM [2]: 145.75 MEQ/L | TOTAL BILIRUBIN [2]: 0.2 mg/dL | TOTAL PROTEIN [2]: 5.5 G/DL | ABSOLUTE BASOPHIL [3]: 0 CELLS/uL | ABSOLUTE EOSINOPHIL [3]: 0 CELLS/uL | ABSOLUTE LYMPHOCYTE [3]: 14553.33 CELLS/uL | ABSOLUTE MONOCYTE [3]: 322.67 CELLS/uL | ABSOLUTE SEGMENTED NEUTROPHIL [3]: 1290.67 CELLS/uL | BASOPHIL [3]: 0% | EOSINOPHIL [3]: 0% | ERYTHROCYTE COUNT [3]: 5.96 x10E6/uL | HEMATOCRIT [3]: 37.47% | HEMOGLOBIN [3]: 14.47 G/DL | LEUKOCYTE COUNT [3]: 16.17 x10E3/uL | LYMPHOCYTE [3]: 90.67% | MEAN CORPUSCULAR HEMOGLOBIN [3]: 24.33 pg | MEAN CORPUSCULAR HEMOGLOBIN CONCENTRATION [3]: 38.67 G/DL | MEAN CORPUSCULAR VOLUME [3]: 62.9 fL | MONOCYTE [3]: 2% | NEUTROPHIL [3]: 7.33% | NUCLEATED RED BLOOD CELLS [3]: 0 /100WBC | PLATELET COUNT [3]: 1137 x10E3/uL | ALANINE AMINOTRANSFERASE [3]: 40.33 u/L | ALBUMIN [3]: 4 G/DL | ALKALINE PHOSPHATASE [3]: 365 u/L | ASPARTATE AMINOTRANSFERASE [3]: 81.67 u/L | CARBON DIOXIDE [3]: 28.67 mmol/L | CHLORIDE [3]: 100 MEQ/L | CHOLESTEROL [3]: 70.33 mg/dL | CREATINE PHOSPHOKINASE [3]: 309.67 u/L | CREATININE [3]: 0.14 mg/dL | GLUCOSE [3]: 179.33 mg/dL | LACTATE DEHYDROGENASE [3]: 263 u/L | LIPASE [3]: 10.67 u/L | PHOSPHORUS [3]: 11.03 mg/dL | POTASSIUM [3]: 5.22 MEQ/L | SODIUM [3]: 145.33 MEQ/L | TOTAL BILIRUBIN [3]: 0.13 mg/dL | TOTAL PROTEIN [3]: 6.03 G/DL

— ChEMBL document CHEMBL3885881, “DrugMatrix”
